Data on 2 molecules can be found in PMC5286426, “The Calcium-Dependent Switch Helix of L-Plastin Regulates Actin Bundling” (Scientific Reports, 2017).

For one data set, the system named is normal cells. The following applies: in words; no ref at the sentence; cited from earlier work. An excerpt: Development of metastasis provides the most serious challenge for cancer treatment and is responsible for most cancer related deaths. A number of recent studies have shown that ectopically expressed LPL is largely responsible for this process. Therefore, LPL presents itself as a promising target for drug development to prevent the metastatic activity of the cancer cells. It is also well known that inhibition of fascin, another actin-bundling protein, is a viable approach to block tumor metastasis.

The target of data set [1] is T1, Ca^2+-bound EF (EF domain of LPL) (Homo sapiens, UniProt P13796).
T1 construct: His-tag (with TEV protease cleavage site) (N, cleaved yes); made in house; host or cells: E. coli BL21 (DE3)
T1 sequence (P13796 1-82 limits assumed): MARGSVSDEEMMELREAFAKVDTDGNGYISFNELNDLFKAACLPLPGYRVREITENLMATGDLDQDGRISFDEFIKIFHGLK
The experiment in a line: Surface plasmon resonance (SPR), peptides binding to immobilized EF. Here is the method:
The binding between Ca^2+-bound LPL-EF and a synthetic peptide corresponding to H5 (Ac-[…]-NH2) was evaluated by SPR using a BIAcore X100 instrument (GE Healthcare) and was compared to other peptides including the cytotoxic peptide melittin, and the CaM-target CaMKI and smMLCK peptides. Peptides used here were purchased as synthetic peptides with >95% purity from Genscript (San Diego, CA). The EF construct was immobilized via its sole cysteine residue (Cys42) onto a CM5 sensor chip (GE Healthcare) using thiol-coupling. The running buffer contained 10 mM Tris-HCl pH 7.5, 150 mM KCl, 1 mM CaCl2, and 0.005% (v/v) Tween-20. Different concentrations of the peptide sample were injected at a flow rate of 30 μL/min with a contact time of 1 min at 25 °C. The BIAevaluation software 2.0 (GE Healthcare) was used to process the SPR sensorgrams and for curve-fitting to obtain the dissociation constants (Kd’s). Two different concentrations in each experiment were injected twice to obtain the fitting errors (SEM).
SPR measurements for the interactions between EF and various peptides. The affinity fittings […]
The response units at 4 seconds after starting the injection were used for CaMKIp due to the nonspecific binding seen later during the injection, while the response units at 4 seconds before stopping the injection were used for the […]
(1 picture or pasted object on this page, not shown here)
In general terms: SPR reads the build-up and loss of mass on a sensor chip optically.

For data set [2], the system named is ^15N-labeled ABD2 (residues 384–627). The experiment in a line: NMR titration of ^15N-labeled ABD2 with peptide. Type of data set: binding, human. The following applies: synthetic H5 peptide titrated into ^15N-labeled ABD2 (Supplementary Fig. S5b).
The subject of the next data set is ^15N-labeled EF. The data set is described as follows: HSQC NMR titration of ^15N-labeled EF with peptide. The format is binding, human. The following applies: H5 peptide added to ^15N-labeled EF (Supplementary Fig. S8). Here is the method: The calcium-free samples of EF-H5, EF-H5-S5E, and EF contained 0.5–1.0 mM ^15N- or ^13C,^15N-labeled protein, 100 mM KCl, 20 mM Bis-Tris (pH 6.8), 1 mM EDTA, 0.03% NaN3, 10 mM ^2H-labelled dithiothreitol (^2H-DTT), and 0.5 mM 2,2-dimethyl-2- silapentane-5-sulfonate (DSS) in 99.99% D2O or 10% D2O/90% H2O. The calcium free non-labeled LPL-EF was also prepared in 99.99% D2O with the same buffer components. The calcium-bound form of those constructs were prepared in buffer containing ~1 mM ^15N- or ^13C,^15N-labelled protein, 100 mM KCl, 20 mM Bis-Tris (pH 6.8), 5 mM CaCl2, 0.03% NaN3, 0.5 mM DSS, and 10 mM ^2H-DTT in 99.99% D2O or 10% D2O/90% H2O. The calcium-bound non-labeled LPL-EF-H5 was also prepared in 99.99% D2O with the same buffer ingredients. DSS was used as a reference to obtain ^1H, ^15N and ^13C chemical shifts. All NMR spectra were processed with NMRPipe[71] and analyzed using NMRView[72].
All NMR experiments were performed with a Bruker Avance 700 or 600 MHz spectrometer at 25 °C. […] All NOESY experiments including three-dimensional ^15N-edited NOESY-HSQC and ^13C-edited NOESY-HSQC, and two-dimensional NOESY were measured with a mixing time of 120 ms. {^1H}-^15N heteronuclear NOE data were obtained using a 5 sec train of 120° proton pulses.

[3] abbreviates: EF immobilized via Cys42 on CM5 chip, 10 mM Tris-HCl pH 7.5, 150 mM KCl, 1 mM CaCl2, 0.005% Tween-20, 25 °C, response at 4 seconds before stopping the injection, fitting error SEM, read-out: KD.

Entries after “also recorded” stand apart in the source; their conditions may differ. Where two headings read alike, the source gives them in different places.

What is called Kd is a measure of binding affinity in units of concentration. On to `CC[C@H](C)[C@H](NC(=O)CN)C(=O)NCC(=O)N[C@@H](C)C(=O)N[C@H](C(=O)N[C@@H](CC(C)C)C(=O)N[C@@H](CCCCN)C(=O)N[C@H](C(=O)N[C@@H](CC(C)C)C(=O)N[C@H](C(=O)N[C@H](C(=O)NCC(=O)N[C@@H](CC(C)C)C(=O)N1CCC[C@H]1C(=O)N[C@@H](C)C(=O)N[C@@H](CC(C)C)C(=O)N[C@H](C(=O)N[C@@H](CO)C(=O)N[C@@H](Cc1c[nH]c2ccccc12)C(=O)N[C@H](C(=O)N[C@@H](CCCCN)C(=O)N[C@@H](CCCNC(=N)N)C(=O)N[C@@H](CCCCN)C(=O)N[C@@H](CCCNC(=N)N)C(=O)N[C@@H](CCC(N)=O)C(=O)N[C@@H](CCC(N)=O)C(N)=O)[C@@H](C)CC)[C@@H](C)CC)[C@@H](C)O)[C@@H](C)O)C(C)C)C(C)C` [Melittin, reference compound], for which the Hemolysis and toxicity entry with normal cells is given as “strong hemolytic peptide that is toxic to all normal cells”. For the same molecule, in data set [1] (setting [3]), the equilibrium dissociation constant (Kd) was determined as 158 nM.

Turning to Ac-STDVAKTFRKAINKKEGI-NH2 [H5p], the “Interaction with ABD2 (chemical shift changes)” value in data set [2] is on record as “no chemical shift changes were observed, indicating no interaction”. Besides, the “HSQC spectral effect of H5 peptide on ^15N-labeled EF” value in the data set on ^15N-labeled EF was “intermediate exchange and resultant line broadening; also recorded: did not produce the same spectrum as EF-H5”. Besides, the equilibrium dissociation constant (Kd) was 1000 nM in data set [1] (Ca^2+-bound EF, SPR, pH 7.5, 25 °C, read-out: Kd of H5 peptide for Ca^2+-bound EF (order of magnitude, discussion)) and 3520 nM in data set [1] (setting [3]).
